± gives the expanded uncertainty stated by the source.
Columns and labels:
[1] = Solid-liquid equilibrium temperature
[2] = Crystal 2; DTA

Structure (SMILES) | Triple point temperature [2] [K] | Solid-liquid equilibrium temperature ([1]; 10000 kPa, Crystal 1, DTA) [K] | Solid-liquid equilibrium temperature ([1]; 10000 kPa, Crystal 2, DTA) [K] | Solid-liquid equilibrium temperature ([1]; 25000 kPa, Crystal 1, DTA) [K] | Solid-liquid equilibrium temperature ([1]; 25000 kPa, Crystal 2, DTA) [K] | Solid-liquid equilibrium temperature ([1]; 50000 kPa, Crystal 1, DTA) [K] | Solid-liquid equilibrium temperature ([1]; 50000 kPa, Crystal 2, DTA) [K] | Solid-liquid equilibrium temperature ([1]; 100000 kPa, Crystal 1, DTA) [K] | Solid-liquid equilibrium temperature ([1]; 125000 kPa, Crystal 1, DTA) [K] | Solid-liquid equilibrium temperature ([1]; 150000 kPa, Crystal 1, DTA) [K] | other results
CCCCCCCCCCCCCCCCCCCC [eicosane] | – | – | – | – | – | – | – | – | – | – | Solid-liquid equilibrium temperature ([1]; 33520 kPa, Crystal, DTA): 318.15 ± 0.33 K; Solid-liquid equilibrium temperature ([1]; 55080 kPa, Crystal, DTA): 323.15 ± 0.35 K; Solid-liquid equilibrium temperature ([1]; 76800 kPa, Crystal, DTA): 328.15 ± 0.37 K; Solid-liquid equilibrium temperature ([1]; 99090 kPa, Crystal, DTA): 333.15 ± 0.38 K; Solid-liquid equilibrium temperature ([1]; 150000 kPa, Crystal, DTA): 344.91 ± 0.41 K
CCCCCCCCCCCCCCCCCCCCCCCCCCCCCCCCCCCCCCCC [tetracontane] | 376.03 ± 0.41 | – | – | – | – | – | – | – | – | – | Solid-liquid equilibrium temperature ([1]; 10000 kPa, Crystal 1): 357.34 ± 0.55 K; Solid-liquid equilibrium temperature ([1]; 10000 kPa, Crystal 2): 351.37 ± 0.54 K; Solid-liquid equilibrium temperature ([1]; 35758 kPa, Crystal 1): 363.15 ± 0.67 K; Solid-liquid equilibrium temperature ([1]; 48436 kPa, Crystal 2): 363.15 ± 0.7 K; Solid-liquid equilibrium temperature ([1]; 50000 kPa, Crystal 1): 367.26 ± 0.71 K; Solid-liquid equilibrium temperature ([1]; 50000 kPa, Crystal 2): 364.54 ± 0.7 K; Solid-liquid equilibrium temperature ([1]; 68114 kPa, Crystal 1): 371.15 ± 0.75 K; Solid-liquid equilibrium temperature ([1]; 73917 kPa, Crystal 2): 371.15 ± 0.76 K; Solid-liquid equilibrium temperature ([1]; 90000 kPa, Crystal 1): 376.58 ± 0.8 K; Solid-liquid equilibrium temperature ([1]; 112740 kPa, Crystal 1): 381.15 ± 0.84 K; Solid-liquid equilibrium temperature ([1]; 130000 kPa, Crystal 1): 385.22 ± 0.87 K
CCCCCCCCCCCCCCCCCCCCCCCC [tetracosane] | 339.59 ± 0.41 | 326.74 ± 0.31 | 324.24 ± 0.3 | 330.4 ± 0.33 | 328.4 ± 0.33 | 336.12 ± 0.36 | 334.94 ± 0.36 | 346.93 ± 0.4 | 352.26 ± 0.41 | 357.28 ± 0.42 | Solid-liquid equilibrium temperature ([1]; 40000 kPa, Crystal 1, DTA): 333.86 ± 0.35 K; Solid-liquid equilibrium temperature ([1]; 40000 kPa, Crystal 2, DTA): 332.37 ± 0.35 K
CCCCCCCCCCCCCCCCCCCCCCCCCCCCCC [triacontane] | 361.27 ± 0.41 | 341.68 ± 0.31 | 338.9 ± 0.31 | 345.34 ± 0.34 | 343.03 ± 0.34 | 351.45 ± 0.37 | 349.8 ± 0.37 | 362.54 ± 0.41 | 367.76 ± 0.42 | 372.97 ± 0.44 | Solid-liquid equilibrium temperature ([1]; 75000 kPa, Crystal 1, DTA): 357 ± 0.39 K; Solid-liquid equilibrium temperature ([1]; 75000 kPa, Crystal 2, DTA): 356.07 ± 0.39 K

From the NIST ThermoML archive (doi:10.1016/j.jct.2008.07.017)
